Results: US20090286770A1, “Use of Staurosporine Derivatives for the Treatment of Multiple Myeloma” (priority 2004, published 2009)

Test system: cell lines harbouring ras or FGFR3 activating mutations especially multiple myeloma cell lines
Test: potency toward cell lines harbouring ras or FGFR3 activating mutations
Format: cell-based
Settings: especially multiple myeloma cell lines harbouring the ras or FGFR3

SMILES: CO[C@@H]1[C@H](N(C)C(=O)c2ccccc2)C[C@H]2O[C@]1(C)n1c3ccccc3c3c4c(c5c6ccccc6n2c5c31)C(=O)NC4 [MIDOSTAURIN, N-[(9S,10R,11R,13R)-2,3,10,11,12,13-hexahydro-10-methoxy-9-methyl-1-oxo-9,13-epoxy-1H,9H-diindolo[1,2,3-gh:3′,2′,1′-lm]pyrrolo[3,4-j][1,7]benzodiazonin-11-yl]-N-methylbenzamide]
- potency toward cell lines harbouring ras or FGFR3 activating mutations: unexpected high potency
